Structures can show the parent of a compound that is named as a salt.
Assays:
[1] = tested on: myeloperoxydase (MPO); assay: Myeloperoxydase activity in intestinal tissue, acute colitis model (2,4,6-trinitrobenzensulphonic acid); assay type: in vivo; settings: for Myeloperoxydase activity (unit/mg tissue): rectal route, amount corresponding to 100 mg/kg of 5-ASA, 6 administrations, intestinal tissue (wet)
Procedure: Myeloperoxydase Activity of the 5-Aminosalicylic Acid (4-nitroxy)butyl Ester Compared with that of the Corresponding Hydrochloride and Nitrate Salts, in an Acute Colitis Model
4 groups of 6 animals each have been formed. The groups were treated, respectively, with the carrier (carboxymethylcellulose aqueous solution 1%), 100 mg/Kg of 5-ASA, a 5-ASA-NO2.HCl amount corresponding to 100 mg/kg of 5-ASA, an amount of 5-ASA-NO2.HNO3 correspsonding to 100 mg/kg of 5-ASA.
The animals were treated by rectal route with the above compounds at zero time. After one hour the animals were treated with 0.5 ml of a 60 mg/ml solution of 2,4,6,trinitro-benzensulphonic acid in ethyl alcohol 50%. After two hours the animals were treated again by rectal route with the same compounds and at 12 hour intervals up to a total of 6 administrations.
The tissular levels of the myeloperoxydase (MPO) enzym have been measured which is an inflammatory process marker in various tissues, among which the bony-articular one (C. Rathakrishnan et Al., “Release of oxygen radicals by articular chondrocytes: A study of luminol-dependent chemiluminescence and hydrogen peroxide secretion” J. Bone Miner. Res. 7/10 1139-1148 1992).
The myeloperoxydase activity was measured by using a modified version of the experimental model described by Bradley et al. J. Invest. Dermatol. 78, 206-209, 1982. Samples of intestinal tissue were drawn from each animal, which were suspended in 0.1% of hexadecyltrimethylammonium bromide (50 mg/ml) at a pH 6 and homogenized for 15 seconds (Polytron® PT-7 generator). The samples were frozen and then defrosted three times subsequently before being centrifuged (9,000 g) for 2 minutes in an Eppendorf® Benchtop centrifuge. The myeloperoxydase activity was measured by adding 7 μl of the surnatant to 200 μl of o-dianisidine (Sigma) reactant and measuring the optical density variation at 450 nm in a two minute time in a Microtitre Multiscan®. The reactant contained 0.0005% of hydrogen peroxide as substratum for the myeloperoxydase enzym. One unity of the myeloperoxydase activity was defined as the one capable to convert an hydrogen proxide micromole to water in one minute at 22° C. The results are reported in Table II and are expressed as unit number of the myeloperoxydase activity/tissue mg (wet).

[2] = Gastric toxicity (gastric lesion incidence) after oral administration in fasted rats; assay type: in vivo; settings: for Gastric damage (% incidence): rat, in vivo, po, 100 mg/kg
Procedure: Gastric Toxicity of Piroxicam Nitrate Salt (Ex. 1) Compared with Piroxicam
To 3 groups of 10 rats each, kept on empty stomach since 24 hours, orally are administered:
5 ml/Kg of carboxymethylcellulose aqueous suspension 2%.
an amount of nitrate Piroxicam corresponding to 100 mg/kg of Piroxicam in 5 ml/kg of carboxymethylcellulose aqueous suspension 2%.
an amount of hydrocloride Piroxicam corresponding to 100 mg/kg of Piroxicam in 5 ml/kg of carboxymethylcellulose aqueous suspension 2%.
Six hours later the animals are sacrificed and the gastric lesion incidence is evaluated.

[3] = Gastric damage induced by Aspirin, Alendronate compared with Alendronate nitrate salt; settings: rats, after Aspirin 125 mg/Kg, Alendronate dose 80 mg/Kg p.o.
Procedure: Prevention of the Gastric Damage Induced by Aspirin by Administering Alendronate in Comparison with Alendronate Nitrate Salt
Three groups of 5 rats each were treated by oral route with gastric probe as indicated hereinafter:
I group: treated with Alendronate (Alen.) at the dose of 80 mg/Kg.
II group: 1 h before the Alendronate 80 mg/Kg dose, ASpirin (Asp.) was supplied per os at the dose of 125 mg/Kg.
III group: 1 h before the Alendronate nitrate, (Alen.HNO3) corresponding to the Alendronate 80 mg/Kg dose, Aspirin was supplied per os at the dose of 125 mg/Kg.
The evaluation of the gastric damage was carried out sacrificing the animals three hours after the treatment with Alendronate or Alendronate nitrate.

[4] = Acute toxicity, single oral dose in rats; assay type: in vivo; settings: single dose 100 mg/kg orally in carboxymethylcellulose aqueous suspension 2% w/v, observation for 14 days
Procedure: To a group of 10 rats weighing […] a single dose equal to 100 mg/kg of Piroxicam nitrate salt (Example 1), has been administered by cannula orally in a carboxymethylcellulose aqueous suspension 2% w/v.
The animals are kept under obsevation for 14 days.

Cl.Nc1ccc(O)c(C(=O)OCCCCO[N+](=O)[O-])c1 [5-ASA-NO2.HCl, Hydrochloride Salt of the 5-Aminosalicylic Acid (4-nitroxy)-butyl Ester, reference compound]
Myeloperoxydase activity (unit/mg tissue) [1]: 111 ± 20 unit/mg tissue

Nc1ccc(O)c(C(=O)OCCCCO[N+](=O)[O-])c1.O=[N+]([O-])O [5-ASA-NO2.HNO3, Nitrate Salt of the 5-amino-2-hydroxybenzoic Acid (4-nitroxy)butyl Ester]
myeloperoxydase activity (comparison in words) ([1]; acute colitis model, compared with the other groups): lower than that of the other groups
pharmacological activity compared with the unsalified compound ([1]; pharmacological model indicated in the examples): more active than the unsalified compound
Myeloperoxydase activity (unit/mg tissue) [1]: 35 ± 13 unit/mg tissue

Nc1ccc(O)c(C(=O)O)c1 [Example 5-ASA, 5-aminosalicylic acid, reference compound]
Myeloperoxydase activity (unit/mg tissue) [1]: 72 ± 15 unit/mg tissue

CN1C(C(=O)Nc2ccccn2)=C(O)c2ccccc2S1(=O)=O [Piroxicam.HCl, Piroxicam hydrochloride, reference compound]
Gastric damage (% incidence) ([2]; 6 h): 100%

Alendronate Nitrate Salt [Alen.HNO3]
reduction of the level of the gastric damage in comparison with Alendronate [3]: 4 to 5 times

Piroxicam Nitrate Salt [Piroxicam.HNO3]
toxic symptom presence [4]: In no one of the animals of the group the toxic symptom presence was noticed
Gastric damage (% incidence) [2]: 20%
gastric tolerability (comparison in words) ([2]; rats, 100 mg/kg p.o., compared with Piroxicam hydrochloride): improved gastric tolerability compared with Piroxicam hydrochloride

Reference: patent US6573252B1, “Medicine nitrate salts” (priority 1998, dated 2003)
